In one data set the target is T1, UGT1A1 (Homo sapiens, UniProt P22309).
T1 sequence (P22309 26-533): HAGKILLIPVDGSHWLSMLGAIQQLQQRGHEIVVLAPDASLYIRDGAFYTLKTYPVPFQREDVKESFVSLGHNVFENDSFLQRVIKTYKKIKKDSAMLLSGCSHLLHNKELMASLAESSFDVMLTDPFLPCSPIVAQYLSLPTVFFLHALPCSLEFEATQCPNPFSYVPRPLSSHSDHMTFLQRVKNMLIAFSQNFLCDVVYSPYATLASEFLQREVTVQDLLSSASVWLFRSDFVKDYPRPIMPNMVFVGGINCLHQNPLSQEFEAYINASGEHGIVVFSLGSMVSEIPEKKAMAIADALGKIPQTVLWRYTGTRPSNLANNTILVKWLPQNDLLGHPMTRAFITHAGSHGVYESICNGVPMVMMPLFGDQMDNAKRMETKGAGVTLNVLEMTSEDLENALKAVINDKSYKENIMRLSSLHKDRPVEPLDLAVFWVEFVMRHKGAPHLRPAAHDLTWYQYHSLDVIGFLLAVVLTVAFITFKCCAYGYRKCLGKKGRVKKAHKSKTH
The data set is described as follows: DDI perpetrator study: dolutegravir probe. The format is in vivo. To be noted: human, plasma, oral, 50 mg; for AUC: dolutegravir, probe alone (day 1), geometric mean.

For the next data set, the target named is T2, BCRP (Homo sapiens, UniProt Q9UNQ0).
T2 sequence (Q9UNQ0 1-655): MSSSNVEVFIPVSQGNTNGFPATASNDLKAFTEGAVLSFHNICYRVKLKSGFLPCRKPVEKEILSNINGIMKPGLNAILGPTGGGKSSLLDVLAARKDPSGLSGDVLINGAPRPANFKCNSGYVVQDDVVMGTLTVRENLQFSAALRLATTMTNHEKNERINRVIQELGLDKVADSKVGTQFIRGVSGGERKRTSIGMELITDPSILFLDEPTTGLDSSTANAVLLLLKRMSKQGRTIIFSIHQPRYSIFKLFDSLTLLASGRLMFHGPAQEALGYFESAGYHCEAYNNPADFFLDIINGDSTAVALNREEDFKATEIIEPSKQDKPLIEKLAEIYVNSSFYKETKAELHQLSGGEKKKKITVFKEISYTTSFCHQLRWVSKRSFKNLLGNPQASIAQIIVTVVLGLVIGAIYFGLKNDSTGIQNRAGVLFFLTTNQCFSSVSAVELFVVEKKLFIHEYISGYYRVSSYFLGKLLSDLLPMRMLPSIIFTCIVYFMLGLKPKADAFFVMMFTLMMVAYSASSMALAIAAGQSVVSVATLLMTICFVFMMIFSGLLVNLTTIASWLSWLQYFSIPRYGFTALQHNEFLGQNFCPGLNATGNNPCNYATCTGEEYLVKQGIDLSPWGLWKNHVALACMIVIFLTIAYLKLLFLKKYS
The experiment in a line: DDI perpetrator study: rosuvastatin probe. The format is in vivo. To be noted: human, plasma, oral, 10 mg; for AUC: rosuvastatin, probe alone (day 1), geometric mean.

A further data set concerns the target T3, CYP2C8 (Homo sapiens, UniProt P10632).
T3 sequence (P10632 1-490): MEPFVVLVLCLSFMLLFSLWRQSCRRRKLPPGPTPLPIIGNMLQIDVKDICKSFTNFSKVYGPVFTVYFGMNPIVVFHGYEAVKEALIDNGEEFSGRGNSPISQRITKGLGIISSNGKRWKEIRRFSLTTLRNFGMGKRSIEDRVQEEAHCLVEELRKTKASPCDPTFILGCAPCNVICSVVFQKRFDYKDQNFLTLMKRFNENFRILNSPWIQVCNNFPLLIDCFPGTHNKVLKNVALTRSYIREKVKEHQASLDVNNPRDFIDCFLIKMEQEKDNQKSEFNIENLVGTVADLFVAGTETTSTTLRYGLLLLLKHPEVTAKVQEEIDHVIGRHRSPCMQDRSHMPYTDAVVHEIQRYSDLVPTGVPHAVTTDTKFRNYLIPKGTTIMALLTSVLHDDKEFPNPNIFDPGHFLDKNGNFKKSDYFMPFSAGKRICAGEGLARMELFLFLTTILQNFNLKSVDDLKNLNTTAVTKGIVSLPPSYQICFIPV
The experiment in a line: DDI perpetrator study: repaglinide probe. The format is in vivo. To be noted: human, plasma, oral, 0.5 mg; for AUC: repaglinide, probe alone (day 1), geometric mean.

A further data set deals with CYP3A4. The data set is described as follows: clinical. To be noted: human, plasma, oral; for AUC: geometric mean.

As usually defined, the Cmax is the maximum level reached in the sampled fluid or tissue. In general, AUC refers to concentration integrated over time.

In turn, `C[C@@H]1CCO[C@H]2Cn3cc(C(=O)NCc4ccc(F)cc4F)c(=O)c(O)c3C(=O)N12` [Dolutegravir] yielded a Cmax at UGT1A1 of 2590 ng/mL. The area under the curve (AUC) was 46300 ng·h/mL on UGT1A1 (AUC0‐inf) and 44600 ng·h/mL at UGT1A1 (AUC0‐last).

Regarding `CC(C)c1nc(N(C)S(C)(=O)=O)nc(-c2ccc(F)cc2)c1/C=C/[C@@H](O)C[C@@H](O)CC(=O)O` [Rosuvastatin], the Cmax at BCRP was 2.35 ng/mL. Also, the AUC on BCRP (AUC0‐inf) was found to be 20.7 ng·h/mL; on BCRP (AUC0‐last), 17.1 ng·h/mL.

Compound `CCOc1cc(CC(=O)N[C@@H](CC(C)C)c2ccccc2N2CCCCC2)ccc1C(=O)O` [Repaglinide] gave a Cmax at CYP2C8 of 2.94 ng/mL. Besides, the AUC at CYP2C8 (AUC0‐inf) worked out at 7.27 ng·h/mL; on CYP2C8 (AUC0‐last), 6.68 ng·h/mL.

In turn, `Cc1ncc2n1-c1ccc(Cl)cc1C(c1ccccc1F)=NC2` [Midazolam] gave a Cmax with CYP3A4 (2.5 mg) of 8.42 ng/mL. Moreover, the AUC in the data set on CYP3A4 (2.5 mg, AUC0‐inf, midazolam, probe alone (day 1)) came out at 39.5 ng·h/mL; in the data set on CYP3A4 (2.5 mg, AUC0‐last, midazolam, probe alone (day 1)), 37.5 ng·h/mL; in the data set with CYP3A4 (AUC0‐inf, midazolam + miricorilant (day 10)) it was 34.7 ng·h/mL.

(Values after publication PMC12709667 (Journal of Clinical Pharmacology, 2025).)
